{
  "source": "patent US20260216133A1",
  "about": "“AEROSOL COMPRISING 5-METHOXY-N,N-DIMETHYLTRYPTAMINE” (GH Research Ireland Limited, priority 2020, published 2026)",
  "key": {"[1]": {"assay": "Degradation products of 5-MeO-DMT aerosol by HPLC after SPE extraction", "details": "18 mg capsule, 210° C. aerosolization, Replicate 1, Extract 1; including the additional amount of Impurity 1"}, "[2]": {"assay": "Particle size distribution of 5-MeO-DMT aerosol, Next Generation Impactor (NGI)", "format": "physicochemical", "protocol": "The particle size distribution of 5-MeO-DMT aerosol particles as generated according to the compositions and methods of the present invention are determined according to United States Pharmacopeia (USP) methods using the Next Generation Impactor (NGI) (United States Pharmacopeia (USP)<601> Apparatus 6) as shown in FIG. 2.\nThis device fractionates the bolus aerosol delivered into a discrete series of size ranges on the basis of particle or droplet inertia and provides a measure of the aerodynamic diameter of the aerosol droplets produced. The droplet size range captured by each stage in the NGI can be dependent on the measured airflow used. For the present analysis, experiments are carried out using an airflow of 30 liters/minute (Experiments 1 and 3) and of 15 liters/minute (Experiments 2 and 4).\nBased on a log-normal distribution of particle sizes, the aerodynamic size distribution is characterized by the mass median aerodynamic diameter (MMAD) and geometric standard deviation (GSD). Moreover, the fine particle fraction (FPF) is determined as the weight percentage of droplets having an aerodynamic diameter of less than or equal to 5 μm, relative to the total of droplets on the impactor.\nA first experiment is carried out using a Volcano Medic Vaporization System as described in Example 1 with dosing capsules having a nominal drug load of 6 mg 5-MeO-DMT free base/capsule. The aerosol recovered in the balloon is measured using the NGI operated using a flow rate of 30 liters/min.\nA second experiment is carried also out using a Volcano Medic Vaporization System as described in Example 1 with dosing capsules having a nominal drug load of 6 mg 5-MeO-DMT free base/capsule. The aerosol recovered in the balloon is measured using the NGI operated using a flow rate of 15 liters/min.\nIn this experiment, NGI cups were coated with glycerol to prevent possible droplet re-entrainment. In addition, approximately 8 drops of 30% glycerol in water were added to each filter paper located underneath the corresponding NGI Stage Jets."}, "[3]": {"assay": "Aerosolization of 5-MeO-DMT from dosing capsules (Volcano Medic), aerosolized dose by weighing", "details": "triplicate capsules; for Aerosolized dose: 210° C., 12 l/min, 15 seconds"}, "[4]": {"assay": "Aerosol particle formation rate (aerosolized dose/aerosolization time)", "format": "physicochemical", "details": "aerosolization time 15 seconds", "protocol": "The aerosol particle formation rate can be calculated as follows: Aerosol particle formation rate=Aerosolized dose/Aerosolization time. For the aerosolized dose data and the aerosolization time of 15 seconds from Example 2, the following aerosol particle formation rate was determined: […]"}, "[5]": {"assay": "Aerosol 5-MeO-DMT mass density (aerosolized dose/aerosol volume)", "format": "physicochemical", "details": "aerosol volume about 3 liters", "protocol": "The aerosol 5-MeO-DMT mass density can be calculated as follows: Aerosol 5-MeO-DMT mass density =Aerosolized dose/Aerosol volume. For the aerosolized dose data and the aerosol volume of about 3 liters from Example 2, the following aerosol 5-MeO-DMT mass density was determined: […]"}, "[6]": {"details": "Experiment 1: 6 mg/capsule, NGI 30 liters/min, mean of 3 runs"}, "[7]": {"details": "Experiment 1: 6 mg/capsule, NGI 30 liters/min, single runs"}, "[8]": {"details": "Experiment 2: 6 mg/capsule, NGI 15 liters/min, Mean (Runs 1-3)"}, "[9]": {"details": "Experiment 2: 6 mg/capsule, NGI 15 liters/min, Mean (Runs 2, 3)"}, "[10]": {"details": "Experiment 3: 18 mg/capsule, NGI 30 liters/min, mean of 3 runs"}, "[11]": {"details": "Experiment 3: 18 mg/capsule, NGI 30 liters/min, single runs"}, "[12]": {"details": "Experiment 4: 18 mg/capsule, NGI 15 liters/min, glycerol-coated cups, single runs"}, "[13]": {"details": "Experiment 4: 18 mg/capsule, NGI 15 liters/min, mean of 3 runs"}},
  "note": "Where “and” joins values, the source holds several entries; their conditions need not be identical. Identical values can stand only once.",
  "data": [
    {"smiles": "COc1ccc2[nH]cc(CCN(C)C)c2c1", "note": "[5-MeO-DMT, 5-methoxy-N,N-dimethyltryptamine]", "values": [
      {"measurement": "total percentage of 5-MeO-DMT degradation products in the aerosol", "setting": "[1]", "result": 0.19, "unit": "%"},
      {"measurement": "FPF", "setting": "[2]; [6]", "result": 97.95, "unit": "%"},
      {"measurement": "GSD", "setting": "[2]; [6]", "result": 3.49},
      {"measurement": "MMAD", "setting": "[2]; [6]", "result": 0.40, "unit": "μm"},
      {"measurement": "GSD", "setting": "[2]; [7]", "result": "4.70 and 3.05 and 2.71"},
      {"measurement": "MMAD", "setting": "[2]; [7]", "result": "0.33 μm and 0.46 μm and 0.42 μm"},
      {"measurement": "FPF", "setting": "[2]; Experiment 1: 6 mg/capsule, NGI 30 liters/min, single runs, droplets <= 5 μm", "result": "96.19% and 98.35% and 99.31%"},
      {"measurement": "FPF", "setting": "[2]; [8]", "result": 94.85, "unit": "%"},
      {"measurement": "GSD", "setting": "[2]; [8]", "result": 4.63},
      {"measurement": "MMAD", "setting": "[2]; [8]", "result": 0.57, "unit": "μm"},
      {"measurement": "FPF", "setting": "[2]; [9]", "result": 94.67, "unit": "%"},
      {"measurement": "GSD", "setting": "[2]; [9]", "result": 3.20},
      {"measurement": "MMAD", "setting": "[2]; [9]", "result": 0.77, "unit": "μm"},
      {"measurement": "FPF", "setting": "[2]; Experiment 2: 6 mg/capsule, NGI 15 liters/min, glycerol-coated cups, single runs, Run 1 may not be reliable", "result": "95.22% and 93.54% and 95.79%"},
      {"measurement": "FPF", "setting": "[2]; [10]", "result": 94.64, "unit": "%"},
      {"measurement": "GSD", "setting": "[2]; [10]", "result": 2.65},
      {"measurement": "MMAD", "setting": "[2]; [10]", "result": 1.05, "unit": "μm"},
      {"measurement": "FPF", "setting": "[2]; [11]", "result": "93.13% and 94.08% and 96.72%"},
      {"measurement": "GSD", "setting": "[2]; [11]", "result": "2.98 and 2.52 and 2.44"},
      {"measurement": "MMAD", "setting": "[2]; [11]", "result": "0.98 μm and 1.19 μm and 0.97 μm"},
      {"measurement": "FPF", "setting": "[2]; [12]", "result": "93.23% and 92.66% and 91.40%"},
      {"measurement": "GSD", "setting": "[2]; [12]", "result": "2.66 and 2.77 and 2.10"},
      {"measurement": "MMAD", "setting": "[2]; [12]", "result": "1.16 μm and 1.14 μm and 1.82 μm"},
      {"measurement": "FPF", "setting": "[2]; [13]", "result": 92.43, "unit": "%"},
      {"measurement": "GSD", "setting": "[2]; [13]", "result": 2.51},
      {"measurement": "MMAD", "setting": "[2]; [13]", "result": 1.37, "unit": "μm"},
      {"measurement": "Aerosolized dose, % of loaded dose", "setting": "[3]; target dosage 2 mg", "result": "100.5% and 99.5%"},
      {"measurement": "Aerosolized dose", "setting": "[3]; target dosage 2 mg", "result": 1.9, "unit": "mg"},
      {"measurement": "Aerosolized dose, % of loaded dose", "setting": "[3]; target dosage 18 mg", "result": "96.3% and 96.5% and 95.9%"},
      {"measurement": "Aerosolized dose", "setting": "[3]; target dosage 18 mg", "result": "16.3 mg and 16.2 mg"},
      {"measurement": "Aerosol particle formation rate", "setting": "[4]; target dosage 2 mg", "result": 0.12, "unit": "mg/s"},
      {"measurement": "Aerosol particle formation rate", "setting": "[4]; target dosage 18 mg", "result": "1.09 mg/s and 1.08 mg/s"},
      {"measurement": "Aerosol 5-MeO-DMT mass density", "setting": "[5]; target dosage 2 mg", "result": 0.62, "unit": "mg/L"},
      {"measurement": "Aerosol 5-MeO-DMT mass density", "setting": "[5]; target dosage 18 mg", "result": "5.45 mg/L and 5.38 mg/L and 5.43 mg/L"}
    ]}
  ]
}
